Data on six molecules can be found in publication PMC7034070, “Synthesis, anti-inflammatory, cytotoxic, and COX-1/2 inhibitory activities of cyclic imides bearing 3-benzenesulfonamide, oxime, and β-phenylalanine scaffolds: a molecular docking study” (Journal of Enzyme Inhibition and Medicinal Chemistry, 2020).

Data set [1] has as its system carrageenan induced rat paw oedema. Description: rat carrageenan-induced foot paw oedema model. The format is in vivo. Conditions: for Mean % increase in paw weight ± SEM / % Inhibition of paw oedema from control group: 2 h after carrageenan; for Mean % increase in paw weight ± SEM: control group 165.6 ± 1.6; for % Inhibition of paw oedema from control group: single dose screen (Table 1). As to the method:
Anti-inflammatory assessment of the newly synthesised compounds was carried out using an in vivo rat carrageenan-induced foot paw oedema model, as reported previously[16]^,[17].

The target of a further data set is T1, COX-2 (Ovis aries, UniProt P79208).
T1 construct: purchased Cayman Chemicals Inc., Ann Arbour, MI
T1 sequence (P79208 17-603): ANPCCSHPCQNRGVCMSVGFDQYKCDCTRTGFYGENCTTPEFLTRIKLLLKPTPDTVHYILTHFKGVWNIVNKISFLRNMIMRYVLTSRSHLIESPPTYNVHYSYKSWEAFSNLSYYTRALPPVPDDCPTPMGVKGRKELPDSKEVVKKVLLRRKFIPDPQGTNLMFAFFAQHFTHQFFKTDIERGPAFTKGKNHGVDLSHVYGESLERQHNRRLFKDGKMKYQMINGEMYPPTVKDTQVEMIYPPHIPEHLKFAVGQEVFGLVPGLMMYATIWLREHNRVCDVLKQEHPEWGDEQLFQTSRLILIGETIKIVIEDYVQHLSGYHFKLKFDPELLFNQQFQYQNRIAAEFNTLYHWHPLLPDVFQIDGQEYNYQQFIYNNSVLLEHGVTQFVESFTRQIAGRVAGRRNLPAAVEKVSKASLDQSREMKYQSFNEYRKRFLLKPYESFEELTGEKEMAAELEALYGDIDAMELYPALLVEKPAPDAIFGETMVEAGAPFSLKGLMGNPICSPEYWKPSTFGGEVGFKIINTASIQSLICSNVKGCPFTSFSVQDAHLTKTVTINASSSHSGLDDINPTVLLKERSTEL
Kind of data set: colorimetric COX (ovine) inhibitor screening assay kit. The format is biochemical. Conditions: for SI, selectivity index (COX-1 IC50/COX-2 IC50): ovine COX-1/COX-2; for IC50: ovine COX-2, mean of two determinations. The text has this:
(§1) To determine the relative ability of the test compounds and reference drugs to inhibit COX-1/COX-2 isozymes, we used the colorimetric COX (ovine) inhibitor screening assay kit (Cayman Chemicals Inc., Ann Arbour, MI), according to the manufacturer’s instructions[3]^,[10]^,[11]^,[20].

In another data set the target is T2, COX-1 (Ovis aries, UniProt P05979).
T2 construct: purchased Cayman Chemicals Inc., Ann Arbour, MI
T2 sequence (P05979 25-600): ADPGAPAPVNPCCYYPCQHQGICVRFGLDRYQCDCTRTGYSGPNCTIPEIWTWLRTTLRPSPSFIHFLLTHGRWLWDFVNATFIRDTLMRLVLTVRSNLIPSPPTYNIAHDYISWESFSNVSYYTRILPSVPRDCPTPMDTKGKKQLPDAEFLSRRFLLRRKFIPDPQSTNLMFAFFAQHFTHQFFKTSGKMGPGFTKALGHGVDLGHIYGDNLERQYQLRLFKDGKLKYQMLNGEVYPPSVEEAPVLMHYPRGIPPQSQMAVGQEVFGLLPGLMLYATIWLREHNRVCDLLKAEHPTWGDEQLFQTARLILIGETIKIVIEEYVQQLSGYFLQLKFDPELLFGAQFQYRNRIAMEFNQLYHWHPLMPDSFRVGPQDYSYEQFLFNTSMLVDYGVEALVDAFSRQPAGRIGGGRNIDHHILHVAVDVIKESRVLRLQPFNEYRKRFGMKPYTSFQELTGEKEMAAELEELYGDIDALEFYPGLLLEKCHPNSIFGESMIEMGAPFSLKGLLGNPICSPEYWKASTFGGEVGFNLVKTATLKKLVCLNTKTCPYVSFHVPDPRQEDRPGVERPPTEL
The description is as above. The data set is classed as biochemical. Conditions: ovine COX-1, mean of two determinations.
Description: as §1

In the next data set the test system is mice. Kind of data set: Ulcerogenicity measurement. The data set is classed as in vivo. The protocol:
Ulcerogenicity was evaluated according to a previously reported method[6]^a,[17]^,[18]. The number and total length of the ulcers for each animal were measured and their averages were calculated and used as the ulcer indices.

SMILES strings stand for the structures. Where “and” joins values, the source holds several entries; their conditions need not be identical. Identical values can stand only once.

`NS(=O)(=O)c1cccc(N2C(=O)c3cccc4cccc(c34)C2=O)c1` [Compound 10, 3-(1,3-Dioxo-1H-benzo[de]isoquinolin-2(3H)-yl)benzenesulfonamide]: the melting point lay within 241 to 243 °C. In data set [1], the “Mean % increase in paw weight ± SEM” value is 93.7 ± 0.4%; the “% Inhibition of paw oedema from control group” value (“% Inhibition of paw oedema” below) is 49.2% and 49.2 ± 0.6%. At COX-2, the “SI, selectivity index (COX-1 IC50/COX-2 IC50)” value is on record as greater than 14.3 and the half-inhibitory concentration (IC50) worked out at 3.5 µM. The molecule further came in with an IC50 on COX-1 greater than 50 µM.

The molecule `CC(=NO)c1ccc(N2C(=O)CCC2=O)cc1` [Compound 11, 1-(4-(1-(Hydroxyimino)ethyl)phenyl)pyrrolidine-2,5-dione] gave a melting point of 184 to 186 °C. Besides, in data set [1], the “Mean % increase in paw weight ± SEM” value is on record as 45.0 ± 0.3%; the “% Inhibition of paw oedema” value was 75.6% and 75.6 ± 0.6%. Further, on COX-2, the “SI, selectivity index (COX-1 IC50/COX-2 IC50)” value is reported as greater than 227.3 and the IC50 was 0.22 µM. Moreover, at COX-1, the IC50 is greater than 50 µM.

`CC(=NO)c1ccc(N2C(=O)c3ccc([N+](=O)[O-])cc3C2=O)cc1` [Compound 18, 2-(4-(1-(Hydroxyimino)ethyl)phenyl)-5-nitroisoindoline-1,3-dione]: the melting point lay within 269 to 271 °C. Besides, the “Average number of ulcers” value with mice (mice) was determined as 2. In addition, the “Mean sum of lengths of elongated ulcer” value in the data set with mice (mice, ± SEM) is on record as 0.9 ± 0.08 mm. Also, in the data set on mice (relative to diclofenac and celecoxib), the “level of ulcerogenic activity (in words)” value is on record as “very low levels of ulcerogenic activity”. Also, in data set [1], the “Mean % increase in paw weight ± SEM” value worked out at 31.6 ± 0.4%; the “% Inhibition of paw oedema” value is 82.9% and 82.9 ± 0.8%. Moreover, the “Percentage inhibition of paw oedema from control group” value (“Percentage inhibition of paw oedema” below) in data set [1] (dose 45 mg/kg) is reported as 70.1%. Moreover, the “Percentage inhibition of paw oedema” value in data set [1] (dose 65 mg/kg) is recorded as 82.9%. Further, in data set [1] (dose 80 mg/kg), the “Percentage inhibition of paw oedema” value was determined as 91.9%. In data set [1] (from three graded doses (45, 65, 80 mg/kg)), this molecule returned a median effective dose (ED50) of 35.4 mg/kg. Besides, at COX-2, the “SI, selectivity index (COX-1 IC50/COX-2 IC50)” value was greater than 333.3 and the IC50 came to 0.15 µM. Besides, the 50% inhibitory concentration (IC50) at COX-1 is greater than 50 µM.

Molecule `CC(=NO)c1ccc(N2C(=O)c3cccc4cccc(c34)C2=O)cc1` [Compound 19, 2-(4-(1-(Hydroxyimino)ethyl)phenyl)-1H-benzo[de]isoquinoline-1,3(2H)-dione] displayed a melting point greater than 300 °C. Also, in data set [1], the “Mean % increase in paw weight ± SEM” value worked out at 57.6 ± 0.5%; the “% Inhibition of paw oedema” value is 68.8% and 68.8 ± 0.4%. For the same molecule, on COX-2, the “SI, selectivity index (COX-1 IC50/COX-2 IC50)” value is reported as greater than 178.6 and half-maximal inhibition (IC50) was put at 0.28 µM. Besides, at COX-1, the IC50 is greater than 50 µM.

With `O=C(O)CC(c1ccccc1)N1C(=O)CCC1=O` (stereo not shown) [Compound 21, 3-(2,5-Dioxopyrrolidin-1-yl)-3-phenylpropanoic acid], the melting point lay in the range of 259 to 261 °C. Further, in data set [1], the “Mean % increase in paw weight ± SEM” value was 98.9 ± 0.6%; the “% Inhibition of paw oedema” value is 46.4% and 46.4 ± 0.3%. In addition, at COX-2, the “SI, selectivity index (COX-1 IC50/COX-2 IC50)” value is recorded as 0.55 and half-maximal inhibition (IC50) was put at 30.3 µM. Also, the half-maximal inhibitory concentration (IC50) at COX-1 amounted to 16.6 µM.

Regarding `O=C(O)CC(c1ccccc1)N1C(=O)c2ccc([N+](=O)[O-])cc2C1=O` (stereo not shown) [Compound 28, 3-(5-Nitro-1,3-dioxoisoindolin-2-yl)-3-phenylpropanoic acid], the melting point is 191 to 193 °C. For the same molecule, in data set [1], the “Mean % increase in paw weight ± SEM” value is given as 100.9 ± 0.8%; the “% Inhibition of paw oedema” value was 42.5% and 42.5 ± 0.2%. On COX-2, the “SI, selectivity index (COX-1 IC50/COX-2 IC50)” value is recorded as 0.61 and the concentration for half-maximal inhibition (IC50) was determined as 30 µM. The molecule further yielded a half-inhibitory concentration (IC50) on COX-1 of 18.2 µM.
